# Measured values as given in patent publication US12145936B1, “7-Imino-5-(1H-indol-3-yl)-1,3-substituted-7,8-dihdropyrimido[4,5-d]pyrimidine-2,4(1H,3H)-dione as anti-inflammatory agents” (KING FAISAL UNIVERSITY, priority 2023, dated 2024).
# Target: T1, human COX-2 enzyme (Homo sapiens, UniProt P35354)
# T1 construct: purchased
# T1 sequence (P35354 18-604): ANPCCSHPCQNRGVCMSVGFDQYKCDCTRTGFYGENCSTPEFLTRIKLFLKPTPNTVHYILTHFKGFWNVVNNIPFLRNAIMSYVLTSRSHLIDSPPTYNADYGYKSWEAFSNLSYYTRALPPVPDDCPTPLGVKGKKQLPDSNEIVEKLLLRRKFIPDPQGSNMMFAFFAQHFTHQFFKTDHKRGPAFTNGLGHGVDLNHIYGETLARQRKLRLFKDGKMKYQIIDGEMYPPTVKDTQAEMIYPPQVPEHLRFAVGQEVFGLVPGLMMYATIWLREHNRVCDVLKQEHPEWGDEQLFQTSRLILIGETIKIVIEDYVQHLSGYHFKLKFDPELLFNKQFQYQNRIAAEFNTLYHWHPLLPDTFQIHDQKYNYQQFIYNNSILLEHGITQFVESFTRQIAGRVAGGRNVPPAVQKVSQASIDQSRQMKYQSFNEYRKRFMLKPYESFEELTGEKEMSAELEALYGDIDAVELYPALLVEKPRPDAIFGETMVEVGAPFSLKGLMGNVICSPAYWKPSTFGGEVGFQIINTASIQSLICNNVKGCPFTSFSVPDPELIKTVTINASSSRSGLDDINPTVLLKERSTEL
# Experiment: Cyclooxygenases (COX-2) enzyme inhibition assay, COX (human) Inhibitor Screening Assay Kit with prostaglandin ELISA readout
# Type: biochemical
# Details: 10 μM compound, in vitro, ELISA plate incubation 18 hours, read-out: % Inhibition (COX-2) Mean ± SEM
# Procedure: According to manufacturer instructions, a COX inhibition assay was performed using COX (human) Inhibitor Screening Assay Kit for the compounds 7-imino-5-(1H-indol-3-yl)-1,3-substituted-7,8-dihydropyrimido[4,5-d]pyrimidine-2,4(1H,3H)-dione derivatives (4a-c). All reagents and buffers were prepared in ultrapure water. All stock solutions of the compounds and the positive controls (Indomethacin and Celecoxib) were dissolved in DMSO. In each inhibitor sample tube, 160 μL reaction buffer, 10 μL of heme, 10 μL of diluted COX-2 enzyme, and 10 μL of the diluted inhibitor was added to get a final concentration of 100 μM. […] 10 μL of the vehicle control (DMSO) was added to the background tubes, and COX enzyme's 100% initial activity was obtained. All reaction tubes were incubated for 10 minutes at 37° C. Following this incubation, 10 μL of the substrate, arachidonic acid (AA), was added to all test tubes, mixed, and further incubated for precisely 30 seconds at 37° C. Then, 30 μL of SnCl2 solution was added to each reaction tube to stop the enzyme catalysis. All reaction tubes were removed from the incubator, vortexed, and incubated again for 5 min at room temperature. Reaction tubes were stored at 4° C. to quantify the prostaglandin formation by competitive enzyme-linked immunosorbent assay (ELISA). ELISA standards were prepared in test tubes to perform the competitive ELISA, and dilutions were prepared with the ELISA buffer. The standards, COX reaction dilutions, and background samples were serially diluted. […] Blank (to assess the background absorbance caused by Ellman's reagent) and total activity (TA) (to determine the enzymatic activity of the AChE-linked tracer) wells were left empty, 100 μL and 50 μL of the ELISA buffer were added to the nonspecific binding (NSB) and maximum binding (B0), respectively. […] Finally, the plate reading was done at a wavelength of 405 nm with a Microplate reader from BioTek (by Agilent), and data were collected using Gen5™ (by Agilent) analysis software. […]
smiles,measurement,value
"N=c1nc(-c2c[nH]c3ccccc23)c2c(=O)[nH]c(=O)[nH]c2[nH]1 [Compound 4a, 7-Imino-5-(1H-indol-3-yl)-7,8-dihydropyrimido[4,5-d]pyrimidine-2,4(1H,3H)-dione]",inhibition at 10 µM,23 ± 5.1%
"N=c1nc(-c2c[nH]c3ccccc23)c2c(=O)[nH]c(=S)[nH]c2[nH]1 [Compound 4b, 7-Imino-5-(1H-indol-3-yl)-2-thioxo-2,3,7,8-tetrahydropyrimido[4,5-d]pyrimidin-4(1H)-one]",inhibition at 10 µM,88 ± 2.91%
"Cn1c(=O)c2c(-c3c[nH]c4ccccc34)nc(=N)[nH]c2n(C)c1=O [Compound 4c, 7-Imino-5-(1H-indol-3-yl)-1,3-dimethyl-7,8-dihydropyrimido[4,5-d]pyrimidine-2,4(1H,3H)-dione]",inhibition at 10 µM,98 ± 1.53%
